Assays:
NEK7 [1] = test: NEK7 level in PBMC of NHP after oral dosing; type: in vivo, cynomolgus monkeys; conditions: oral 5 mg/kg for 5 days
Procedure: Non-naïve male and female non-human primate (NHP) cynomolgus monkeys were orally administered with 5 consecutive daily doses of Compound 14 at 5 mg/kg, n=2 per dose group, 1 male and 1 female. Compound formulation was prepared on the day of administration in 0.5% methyl cellulose (4000 cps) in water and animals were fasted overnight. Plasma collected post dose were analyzed using a non GLP LC/MS/MS bioanalytical method to evaluate the compound concentration. Whole blood collected post dose were processed to PBMC and were analyzed using western blot method. Plasma pharmacokinetics and PMBC pharmacodynamics were assessed longitudinally throughout dosing and following dosing cessation.
In Table 8 compound 14 induces NEK7 degradation in vivo. NEK7 protein levels were assessed in PBMC isolated from NHP after oral administration for 5 consecutive days of Compound 14 at 5 mg/kg, n=2 per dose group. NEK7 levels were normalized to β-actin, as determined by JESS, at the indicated time points. NEK7 level at pre dose was normalized to 100%. Days 10 and 15 correspond to recovery period, 5 or 10 days after drug administration, respectively.

IL-1β = test: Ex vivo whole blood stimulation (LPS/nigericin) IL-1β ELISA after dosing of NHP; type: in vivo, cynomolgus monkeys; conditions: oral 5 mg/kg for 5 days
Procedure: Within 0.5 h of blood collection from animals that received vehicle or Compound 14 at 5 mg/kg, whole blood was aliquoted into two 0.25 mL aliquots. One aliquot was used as baseline, and the other as the ex vivo stimulated condition. For stimulation, whole blood was incubated with 100 ng/mL Lipopolysaccharide from Escherichia coli 0111:B4 (LPS-EB) for 3 h, followed by 10 μM nigericin for 2 h. Plasma was then isolated and concentrations of IL-1β in plasma isolated from ex vivo whole blood stimulation were measured using the IL-1β ELISA R&D Systems kit (Cat. #DY1318), with 50 μL per sample diluted with 50 μL reagent diluent/well. After reading absorbance on plate reader, standard curve and sample IL-1β levels were analyzed using 4PL method. […]
In Table 9, suppression of ex vivo inflammasome activation following degradation of NEK7 in NHP is reported. Whole blood was isolated at the indicated time points from NHP dosed orally 5 mg/kg of Compound 14 over 5 days (day 1 through 5), n=2. Days 10 and 15 correspond to recovery period, 5 or 10 days after drug administration, respectively. Whole blood was stimulated ex vivo with 100 ng/mL LPS for 3 h and 10 μM nigericin for 2 h. Plasma was isolated and IL-1β was measured by ELISA. […]

[2] = Plasma pharmacokinetics in NHP, 30 mg/kg oral for 7 days; type: in vivo; conditions: oral 30 mg/kg daily for 7 days, average male and female
Procedure: Naïve NHP were orally administered with 7 consecutive daily dose of Compound 14 at 30 mg/kg, n=4 per dose group, 2 male and 2 female. Compound formulation was prepared on the day of administration in 0.5% methyl cellulose (4000 cps) in water and animals were fed twice a day; water was available ad libitum. Plasma collected posted dose on Day 1 and Day 7 were analyzed using a non GLP LC/MS/MS bioanalytical method to evaluate the compound concentration. Brain samples were harvested 24 h after final dose. Lysates for different brain regions (hippocampus, frontal cortex, and cerebellum) were prepared in M-PER lysis buffer and diluted at total protein concentration of 0.4 mg/mL in 0.1× sample buffer (12-230 kDa detection module; Protein Simple). The anti-NEK7 rabbit mAb (Abcam #AB133514) was used at 1:100 and anti-β-actin rabbit mAb (CST #5125) was used at 1:500. Samples were probed for NEK7 and β-actin protein levels by JESS, and quantified relative to vehicle control.
In Table 10, concentration of Compound 14 in NHP plasma following administration via oral gavage after 7 days post dose at 30 mg/kg is reported. NHP received daily oral administration of 30 mg/kg of Compound 14 for 7 days, n=2.

NEK7 [3] = test: NEK7 degradation in spleen and PBMC in rabbit gout model (JESS); type: in vivo; conditions: rabbits, 10 mg/kg QD×7, harvested 2 h after the final dose
Procedure: MSU crystals were prepared by dissolving uric acid (Aladdin, cat #U105582) in boiling water (1 g in 200 mL with 6 mL of 1 N NaOH). PH value was adjusted to 7.2 by HCl. The solution was stirred and cooled to room temperature and stored at 4° C. overnight. The precipitate was filtered with filter paper and dried under low heat to obtain MSU crystals. New Zealand White rabbits received an intra-articular injection of 1 mL of MSU crystals (50 mg/mL) into both knees (MSU group) or PBS (as vehicle, control group). n=10 for MSU groups; n=6 for PBS group. […]
On Day 7, tissue was harvested 2 hours post final dose. […] Lysates were prepared in M-PER lysis buffer and protein concentration was measured using Pierce rapid gold BCA protein Assay Kit (Thermo Fisher) according to manufacturer's protocol. […]
(a) To determine NEK7 degradation, spleens and peripheral blood mononuclear cells (PBMC) were analyzed by JESS for NEK7 and normalized to α-Tubulin from five representative animals. (b) The degree of joint swelling was determined by caliper measurements at the indicated time points. (c) Rabbit bone tissue sections were stained and quantified for anti-CD31 immunohistochemistry. Results expressed as mean±SEM. […]

[4] = both sexes, monkey, plasma, po, 30 mg/kg
[5] = both sexes, non-human primate (NHP)

Cmax ([2]; both sexes, monkey)	Tmax ([2]; both sexes, monkey)	AUC0-24h [2, 4]	AUC(0-t) [2, 4]	Cmax [2, 5]	Tmax [2, 5]	tlast [2]	SMILES	Average percent NEK7/β-actin in PBMC, relative to predose (NEK7 [1]; Day 1, 6 h)	Average percent NEK7/β-actin in PBMC, relative to predose (NEK7 [1]; Day 1, 24 h)	Average percent NEK7/β-actin in PBMC, relative to predose (NEK7 [1]; Day 5, 6 h)	Average percent NEK7/β-actin in PBMC, relative to predose (NEK7 [1]; Day 5, 24 h)	Average percent NEK7/β-actin in PBMC, relative to predose (NEK7 [1]; Day 10, 24 h (recovery))	Average percent NEK7/β-actin in PBMC, relative to predose (NEK7 [1]; Day 15, 24 h (recovery))	Percent IL-1β relative to predose (IL-1β; Day 1, 6 h)	Percent IL-1β relative to predose (IL-1β; Day 1, 24 h)	Percent IL-1β relative to predose (IL-1β; Day 5, 6 h)	Percent IL-1β relative to predose (IL-1β; Day 5, 24 h)	Percent IL-1β relative to predose (IL-1β; Day 10, 24 h (recovery))	Percent IL-1β relative to predose (IL-1β; Day 15, 24 h (recovery))	degradation of NEK7 in spleen and PBMCs (NEK7 [3])
6600 ng/mL	1.75 h	36600 ng·h/mL	27200 ng·h/mL	6600 ng/mL	1.75 h	8 h	Cc1cnc(C(C)(C)C(=O)NCc2cc(Cl)c(C3CCC(=O)NC3=O)c(Cl)c2)nc1 (centres unmarked) [Compound 14, N-(3,5-dichloro-4-(2,6-dioxopiperidin-3-yl)benzyl)-2-methyl-2-(5-methylpyrimidin-2-yl)-propanamide]	56%	44%	27%	15%	45%	141%	1%	45%	0%	78%	91.5%	141%	
							CC(C)(C(=O)NCc1cc(Cl)c(C2CCC(=O)NC2=O)c(Cl)c1)c1ncc(C#N)cn1 (centres unmarked) [Compound 16, 2-(5-cyanopyrimidin-2-yl)-N-(3,5-dichloro-4-(2,6-dioxopiperidin-3-yl)benzyl)-2-methyl-propanamide]													greater than 50%

Source: US20250243180A1, “TARGETED PROTEIN DEGRADATION” (Monte Rosa Therapeutics AG, priority 2023, published 2025)
